The text below walks through data of paper PMC9695041, “The Anti-Breast Cancer Activity of Dihydroartemisinin-5-methylisatin Hybrids Tethered via Different Carbon Spacers” (Molecules, 2022).

For data set [1], the system named is MCF-7 breast cancer cell line. In words: MTT antiproliferative assay, MCF-7. The data set is classed as cell-based. The note with it: for IC50: Homo sapiens, MCF7, MCF-7, MTT assay.
Procedure: (§1) The antiproliferative activity and cytotoxicity of DHA-5-methylisatin hybrids 6a–c and 7a–m against MCF-7, MDA-MB-231, MCF-7/ADR, and MDA-MB-231/ADR (Purchased from Procell) breast cancer cell lines as well as MCF-10A were assessed by 3-(4,5-dimethylthiazol-2-yl)-2,5-diphenyltetrazolium bromide (MTT) assay.
(§2) MCF-7, MDA-MB-231, MCF-7/ADR, and MDA-MB-231/ADR breast cancer cell lines (2 × 10^3) were plated in each well of a 96-well plate and were allowed to adhere and spread for 24 h. The dihydroartemisinin-5-methylisatin hybrids 6a–e and 7a–m were added to a final concentration of 100 µM, and the cells were cultured for 24 h at 37 °C. 3-(4,5-dimethyl-2-thiazolyl)-2,5-diphenyltetrazolium bromide (MTT) solution (10 µL) was added to each well, and the cultures were incubated for an additional 4 h. A further 100 µL of MTT solution was added and incubation continued overnight. The absorbance at 540 nm was determined in each well with a 96-well plate reader. The growth of the treated cells was compared with that of untreated cells.
The test system of data set [2] is MCF-7/ADR breast cancer cell line. In words: MTT antiproliferative assay, MCF-7/ADR. The data set is classed as cell-based. The note with it: Homo sapiens, NCI/ADR-RES, MCF-7/ADR (drug-resistant). (In general: Tetrazolium assays rely on reduction of a dye to a coloured formazan, in cell work by metabolically active cells.)
Procedure: as §1, §2
Data set [3] relates to MDA-MB-231 breast cancer cell line. In words: MTT antiproliferative assay, MDA-MB-231. It is filed as cell-based. The settings on record: for IC50: Homo sapiens, MDA-MB-231, MTT assay.
Procedure: as §1, §2
The nature of data set [4]: MTT cytotoxicity assay, MCF-10A. The note with it: human, MCF-10A normal breast cells.
Procedure: as §1, §2
For data set [5], the system named is MDA-MB-231/ADR breast cancer cell line. In words: MTT antiproliferative assay, MDA-MB-231/ADR. The data set is classed as cell-based. The settings on record: Homo sapiens, MDA-MB-231/ADR (drug-resistant).
Procedure: as §1, §2

As to `COc1cccc2c1C(=O)c1c(O)c3c(c(O)c1C2=O)C[C@@](O)(C(=O)CO)C[C@@H]3O[C@H]1C[C@H](N)[C@H](O)[C@H](C)O1` [ADR, Adriamycin, reference compound], the IC50 was 18.9 µM in data set [1], more than 100 µM in data set [2] and more than 100 µM in data set [5]. Besides, the “SI1: selectivity index IC50(MCF-10A)/IC50(MCF-7)” value in data set [1] turned out to be 3.64. In data set [3], the “SI2: selectivity index IC50(MCF-10A)/IC50(MDA-MB-231)” value is reported as 14.76. In data set [4], this compound came in with an IC50 at 24 h of 68.8 µM.
As for `C[C@@H]1CC[C@H]2[C@@H](C)C(=O)O[C@@H]3O[C@@]4(C)CC[C@@H]1[C@]32OO4` [ART, Artemisinin], in data set [1], the “SI1: selectivity index IC50(MCF-10A)/IC50(MCF-7)” value is listed as more than 1.14. For the same compound, the IC50 in data set [2] and in data set [5] was more than 100 µM throughout. In addition, in data set [3], the “SI2: selectivity index IC50(MCF-10A)/IC50(MDA-MB-231)” value is reported as more than 1.38. Besides, the IC50 at 24 h in data set [4] is more than 100 µM.
In the case of `C[C@H]1[C@@H](O)O[C@@H]2O[C@@]3(C)CC[C@H]4[C@H](C)CC[C@@H]1[C@@]24OO3` [DHA, Dihydroartemisinin], the “SI1: selectivity index IC50(MCF-10A)/IC50(MCF-7)” value in data set [1] is more than 1.36. In data set [2], the IC50 was found to be 79.1 µM. Moreover, the “SI2: selectivity index IC50(MCF-10A)/IC50(MDA-MB-231)” value in data set [3] was more than 1.43. The compound further returned a half-inhibitory concentration (IC50) at 24 h in data set [4] of more than 100 µM.
In the case of `Cc1ccc2c(c1)C(=O)C(=O)N2CCOC1O[C@@H]2O[C@@]3(C)CC[C@H]4[C@H](C)CC[C@@H]([C@H]1C)[C@@]24OO3` (stereo partly drawn) [Hybrid 6a, 5-Methyl-1-(2-(((3R,5aS,6R,8aS,9R,12R,12aR)-3,6,9-trimethyldecahydro-12H-3,12-epoxy[1,2]dioxepino[4,3-i]isochromen-10-yl)oxy)ethyl)indoline-2,3-dione], the 50% inhibitory concentration (IC50) in data set [1] amounted to 31.7 µM; in data set [2], 25.3 µM; in data set [3], 29.1 µM; in data set [5], 26.9 µM. For the same compound, the “SI1: selectivity index IC50(MCF-10A)/IC50(MCF-7)” value in data set [1] is more than 3.15. The “SI2: selectivity index IC50(MCF-10A)/IC50(MDA-MB-231)” value in data set [3] is more than 3.43. In data set [4], the IC50 at 24 h was more than 100 µM.
Consider `Cc1ccc2c(c1)C(=O)C(=O)N2CCCOC1O[C@@H]2O[C@@]3(C)CC[C@H]4[C@H](C)CC[C@@H]([C@H]1C)[C@@]24OO3` (stereo partly drawn) [Hybrid 6b, 5-Methyl-1-(3-(((3R,5aS,6R,8aS,9R,12R,12aR)-3,6,9-trimethyldecahydro-12H-3,12-epoxy[1,2]dioxepino[4,3-i]isochromen-10-yl)oxy)propyl)indoline-2,3-dione], for which the IC50 in data set [1] is more than 100 µM; in data set [2] it was 87.4 µM; in data set [3], more than 100 µM; in data set [5], more than 100 µM. Further, the IC50 at 24 h in data set [4] is more than 100 µM.
As to `Cc1ccc2c(c1)C(=O)C(=O)N2CCCCOC1O[C@@H]2O[C@@]3(C)CC[C@H]4[C@H](C)CC[C@@H]([C@H]1C)[C@@]24OO3` (stereo partly drawn) [Hybrid 6c, 5-Methyl-1-(4-(((3R,5aS,6R,8aS,9R,12R,12aR)-3,6,9-trimethyldecahydro-12H-3,12-epoxy[1,2]dioxepino[4,3-i]isochromen-10-yl)oxy)butyl)indoline-2,3-dione], the IC50 in data set [1] came to 59.7 µM; in data set [2] it was 49.9 µM; in data set [3], 42.3 µM; in data set [5], 44.5 µM. Moreover, the “SI1: selectivity index IC50(MCF-10A)/IC50(MCF-7)” value in data set [1] is reported as more than 1.67. In addition, the “SI2: selectivity index IC50(MCF-10A)/IC50(MDA-MB-231)” value in data set [3] was more than 2.36. Moreover, the half-maximal inhibitory concentration (IC50) at 24 h in data set [4] was more than 100 µM.
Take `Cc1ccc2c(c1)C(=NO)C(=O)N2CCCOC1O[C@@H]2O[C@@]3(C)CC[C@H]4[C@H](C)CC[C@@H]([C@H]1C)[C@@]24OO3` (stereo partly drawn) [Hybrid 7b, 3-(Hydroxyimino)-5-methyl-1-(3-(((3R,5aS,6R,8aS,9R,12R,12aR)-3,6,9-trimethyldecahydro-12H-3,12-epoxy[1,2]dioxepino[4,3-i]isochromen-10-yl)oxy)propyl)indolin-2-one]: the IC50 in data set [1] stood at 30.3 µM; in data set [2], 28.7 µM; in data set [3] it was 42.6 µM; in data set [5], 36.4 µM. The “SI1: selectivity index IC50(MCF-10A)/IC50(MCF-7)” value in data set [1] is more than 3.30. The “SI2: selectivity index IC50(MCF-10A)/IC50(MDA-MB-231)” value in data set [3] is more than 2.34. Also, the 50% inhibitory concentration (IC50) at 24 h in data set [4] was more than 100 µM.
For the compound `Cc1ccc2c(c1)C(=NO)C(=O)N2CCCCOC1O[C@@H]2O[C@@]3(C)CC[C@H]4[C@H](C)CC[C@@H]([C@H]1C)[C@@]24OO3` (stereo partly drawn) [Hybrid 7c, 3-(Hydroxyimino)-5-methyl-1-(4-(((3R,5aS,6R,8aS,9R,12R,12aR)-3,6,9-trimethyldecahydro-12H-3,12-epoxy[1,2]dioxepino[4,3-i]isochromen-10-yl)oxy)butyl)indolin-2-one], the IC50 in data set [1] was 22.1 µM; in data set [2], 23.4 µM; in data set [3] it was 26.7 µM; in data set [5], 28.5 µM. Further, the “SI1: selectivity index IC50(MCF-10A)/IC50(MCF-7)” value in data set [1] is more than 4.52. Further, the “SI2: selectivity index IC50(MCF-10A)/IC50(MDA-MB-231)” value in data set [3] is on record as more than 3.83. Also, the IC50 at 24 h in data set [4] was more than 100 µM.
Consider `Cc1ccc2c(c1)C(=NNC(N)=O)C(=O)N2CCOC1O[C@@H]2O[C@@]3(C)CC[C@H]4[C@H](C)CC[C@@H]([C@H]1C)[C@@]24OO3` (stereo partly drawn) [Hybrid 7d, 2-(5-Methyl-2-oxo-1-(2-(((3R,5aS,6R,8aS,9R,12R,12aR)-3,6,9-trimethyldecahydro-12H-3,12-epoxy[1,2]dioxepino[4,3-i]isochromen-10-yl)oxy)ethyl)indolin-3-ylidene)hydrazine-1-carboxamide], for which the IC50 in data set [1] was determined as 27.2 µM; in data set [2], 33.3 µM; in data set [3], 19.7 µM; in data set [5], 21.6 µM. For the same compound, the “SI1: selectivity index IC50(MCF-10A)/IC50(MCF-7)” value in data set [1] was more than 3.67. In data set [3], the “SI2: selectivity index IC50(MCF-10A)/IC50(MDA-MB-231)” value is more than 5.07. The 50% inhibitory concentration (IC50) at 24 h in data set [4] is more than 100 µM.
As for `Cc1ccc2c(c1)C(=NNC(N)=O)C(=O)N2CCCCOC1O[C@@H]2O[C@@]3(C)CC[C@H]4[C@H](C)CC[C@@H]([C@H]1C)[C@@]24OO3` (stereo partly drawn) [Hybrid 7e, 2-(5-Methyl-2-oxo-1-(4-(((3R,5aS,6R,8aS,9R,12R,12aR)-3,6,9-trimethyldecahydro-12H-3,12-epoxy[1,2]dioxepino[4,3-i]isochromen-10-yl)oxy)butyl)indolin-3-ylidene)hydrazine-1-carboxamide], the IC50 came out at 39 µM in data set [1], 42.1 µM in data set [2], 31.2 µM in data set [3] and 34.5 µM in data set [5]. Moreover, the “SI1: selectivity index IC50(MCF-10A)/IC50(MCF-7)” value in data set [1] is recorded as more than 2.56. The “SI2: selectivity index IC50(MCF-10A)/IC50(MDA-MB-231)” value in data set [3] is more than 3.20. Besides, the IC50 at 24 h in data set [4] was more than 100 µM.
Take `Cc1ccc2c(c1)C(=NNC(N)=S)C(=O)N2CCCOC1O[C@@H]2O[C@@]3(C)CC[C@H]4[C@H](C)CC[C@@H]([C@H]1C)[C@@]24OO3` (stereo partly drawn) [Hybrid 7f, 2-(5-Methyl-2-oxo-1-(3-(((3R,5aS,6R,8aS,9R,12R,12aR)-3,6,9-trimethyldecahydro-12H-3,12-epoxy[1,2]dioxepino[4,3-i]isochromen-10-yl)oxy)propyl)indolin-3-ylidene)hydrazine-1-carbothioamide]: the IC50 was 46.7 µM in data set [1], 36.4 µM in data set [2], 48.2 µM in data set [3] and 51.1 µM in data set [5]. Moreover, the “SI1: selectivity index IC50(MCF-10A)/IC50(MCF-7)” value in data set [1] is recorded as more than 2.14. Further, the “SI2: selectivity index IC50(MCF-10A)/IC50(MDA-MB-231)” value in data set [3] is recorded as more than 2.07. The compound also had a half-maximal inhibitory concentration (IC50) at 24 h in data set [4] of more than 100 µM.

The IC50 is the concentration that inhibits the measured activity by half. Read a low IC50 as inhibition by little substance.
